From patent US20250134907A1, “FUSED DIAZEPINES AS AGONISTS OF THE INSULIN-LIKE 3 (INSL3) PEPTIDE RECEPTOR RXFP2 AND METHODS OF USE THEREOF” (The United States of America,as represented by the …, priority 2022, published 2025)

How the values were obtained:
[1] = test system: 320 GPCR Tango constructs; experiment: PRESTO-Tango GPCRome counter-screen (beta-arrestin recruitment) in transiently transfected HTLA cells; assay type: cell-based; details: 10 μM compound, 320 GPCRs
Experimental: The PRESTO-Tango GPCRome assay, which measures G-protein coupled receptors (GPCR) mediated beta-arrestin recruitment, was used to perform a HTS of related GPCRs to study specificity and selectivity of the RXFP2 agonists. A total of 320 GPCR Tango constructs were tested. Each of the GPCR constructs used in the assay contained a FLAG tag, the GPCR gene of interest, a Vasopressin 2 C-terminal tail, the TEV protease cleavage site, and the tetracycline-controlled transactivator (tTA) transcription factor. The assay was performed using transiently transfected HTLA cells that stably express the beta-arrestin2-TEV protease fusion protein and a luciferase reporter gene under the control of the tTA transcription factor. Ligand activation of the transfected GPCR construct induces beta-arrestin translocation to the GPCR, where the tobacco etch virus (TEV) protease cleaves the tTA transcription factor, causing activation of luciferase transcription in the nucleus. Thus, luciferase activity in these cells is proportional to beta-arrestin translocation activity. For this assay, HTLA cells were seeded in Poly-L-Lys (PLL)-coated 384-well white clear-bottom plates at 10,000 cell/well in 40 μl/well DMEM supplemented with 10% FBS. […] Plates were incubated for 20 minutes at room temperature protected from light and the luminescence signal was read on a MicroBeta counter (PerkinElmer, Waltham, MA). […]

WT RXFP2 = target: T1, WT RXFP2 (Homo sapiens, UniProt Q8WXD0); experiment: HTRF cAMP assay in HEK293T cells transiently transfected with WT RXFP2; assay type: cell-based
T1 construct: using full-length human RXFP1 and RXFP2 receptor constructs; FLAG; expressed in transfected cells; host or cells: HEK293T (transient, Lipofectamine2000)
T1 sequence (Q8WXD0 whole entry): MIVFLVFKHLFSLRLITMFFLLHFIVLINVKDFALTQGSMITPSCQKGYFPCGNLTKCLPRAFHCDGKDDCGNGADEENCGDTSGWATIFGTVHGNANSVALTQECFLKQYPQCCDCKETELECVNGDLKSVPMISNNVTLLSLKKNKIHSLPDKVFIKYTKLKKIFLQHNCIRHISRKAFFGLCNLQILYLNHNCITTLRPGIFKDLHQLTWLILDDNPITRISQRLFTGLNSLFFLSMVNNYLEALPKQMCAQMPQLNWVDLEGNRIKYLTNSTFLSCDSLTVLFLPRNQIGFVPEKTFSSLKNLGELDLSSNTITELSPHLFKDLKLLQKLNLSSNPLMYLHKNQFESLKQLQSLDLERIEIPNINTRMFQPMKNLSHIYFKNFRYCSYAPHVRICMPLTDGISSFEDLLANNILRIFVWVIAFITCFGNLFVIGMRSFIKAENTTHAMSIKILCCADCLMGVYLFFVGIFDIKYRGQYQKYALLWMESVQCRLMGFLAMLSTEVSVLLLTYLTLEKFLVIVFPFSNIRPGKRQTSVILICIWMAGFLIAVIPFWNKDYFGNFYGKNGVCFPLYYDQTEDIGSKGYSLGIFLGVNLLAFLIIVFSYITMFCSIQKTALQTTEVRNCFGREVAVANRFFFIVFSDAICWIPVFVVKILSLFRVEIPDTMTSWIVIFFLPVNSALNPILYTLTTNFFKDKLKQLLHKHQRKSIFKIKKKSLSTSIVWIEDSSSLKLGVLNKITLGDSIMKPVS
Description: (§1) To further investigate the involvement of the RXFP2 extracellular and transmembrane domains in agonist activation of the receptor, two complementary chimeras were created using the RXFP1 receptor, which is not activated by the agonists of formula (I), to transiently transfect HEK293T cells and measured changes in cAMP induction using the HTRF assay.
(§2) Chimeric receptors were generated by IN-FUSION™ (Takara Bio USA, Inc., San Jose, CA) mutagenesis using full-length human RXFP1 and RXFP2 receptor constructs. Polymerase chain reaction (PCR) was performed using PfuTurbo high-fidelity DNA polymerase (Agilent Technologies, Santa Clara, CA) and overlapping primers with at least 15 bp sequence homology within the fusion site. PCR products were digested with Dpnl restricton enzyme at 37° C. overnight, run on a 0.8% agarose gel and purified using the GENEJET™ Gel extraction kit (Thermo Scientific, Waltham, MA). The purified DNA fragments were then ligated into the BamHI and XhoI pre-digested pcDNA3.1™/Zeo(+) AmpR mammalian expression vector using the In-Fusion HD enzyme premix (Clontech, Mountain View, CA) at 50° C. for 15 minutes, and the resulting product was used to transform Stellar competent cells (Takara Bio USA, Inc., San Jose, CA). The clones were fully sequenced to confirm the correct fusion of both receptor fragments. Chimera RXFP2-1 contained the extracellular domain of RXFP2 and the transmembrane domain of RXFP1. Accordingly, chimera RXFP1-2 contained the extracellular domain of RXFP1 and the transmembrane domain of RXFP2.
(§3) HEK293T cells were seeded in 6-well flat-bottom clear plates at 0.5 million cells/well in 2 mL/well of growth medium (DMEM, 10% FBS, 1× Pen/Strep) and allowed to attach overnight at 37° C. and 5% CO2. The next morning, cells were transfected with 2 μg of plasmid (chimeric receptors, WT RXFP2, or WT RXFP1) and 6 μl of Lipofectamine2000 (Invitrogen, Waltham, MA) in a total volume of 200 μl/well OPTI-MEM™ I (Thermo Fisher, Waltham, MA) reduced serum medium and allowed to incubate an additional 24 hours. The next day, transfected cells were seeded in 96-well flat-bottom opaque plates at 30,000 cells/well in 60 μL/well of serum-free DMEM medium and allowed to attach overnight at 37° C. at 5% CO2. The next morning, cells were treated with 1 μL/well of compound (25 μM-0.25 nM), 2 μM forskolin, or DMSO vehicle. Cells were also treated with 4 μL of positive control INSL3 (100-0.01 nM), Relaxin2 (100-10 nM), or vehicle (serum-free DMEM+IBMX). Plates were incubated for 1 hour at 37° C. and 5% CO2, after which kit cAMP-d2 and anti-cAMP antibody were added as previously described. Cells were incubated for 1 hour at room temperature, and then the signal was read on a CLARIOstar plate reader (BMG Labtech, Germany).

[2] = target: T2, chimera RXFP1-2 (extracellular domain of RXFP1, transmembrane domain of RXFP2) (Homo sapiens, UniProt Q8WXD0); experiment: HTRF cAMP assay in HEK293T cells transiently transfected with chimera RXFP1-2; assay type: cell-based; details: RXFP1-2 chimera
T2 construct: other: RXFP1-2 chimera; Emax; normalized to 2 μM forskolin cAMP response as 100% activity; fused on or other part: FLAG tag; The RXFP1 extracellular domain is the N-terminal part of the chimera and the RXFP2 transmembrane domain is the C-terminal part; Q9HBX9 (Relaxin receptor 1)
T2 sequence (Q8WXD0 417-754 limits assumed, change not shown): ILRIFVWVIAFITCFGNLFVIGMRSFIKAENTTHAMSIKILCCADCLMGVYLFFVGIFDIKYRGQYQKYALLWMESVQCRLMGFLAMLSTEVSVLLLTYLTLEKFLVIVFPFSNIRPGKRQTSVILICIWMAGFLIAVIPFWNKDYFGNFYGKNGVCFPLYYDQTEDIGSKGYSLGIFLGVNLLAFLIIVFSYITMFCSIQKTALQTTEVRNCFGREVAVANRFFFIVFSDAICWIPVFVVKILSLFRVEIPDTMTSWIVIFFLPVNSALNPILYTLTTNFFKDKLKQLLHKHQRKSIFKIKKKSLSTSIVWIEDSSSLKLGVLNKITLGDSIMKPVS
Description: as §1, §2, §3

[3] = test system: chimera RXFP1-2 (extracellular domain of RXFP1, transmembrane domain of RXFP2); experiment: as above; assay type: cell-based, human
Description: as §1, §2, §3

[4] = HEK-293T, normalized to 2 μM forskolin cAMP response as 100% activity

O=C1Nc2ccc(-c3cc(C(F)(F)F)cc(C(F)(F)F)c3)cc2C(=O)N2CCN(C(=O)COc3ccc(OC(F)(F)F)cc3Br)C[C@@H]12 [Example 158, (S)-8-(3,5-Bis(trifluoromethyl)phenyl)-2-(2-(2-bromo-4-(trifluoromethoxy)phenoxy)acetyl)-1,3,4,12a-tetrahydrobenzo[e]pyrazino[1,2-a][1,4]diazepine-6,12 (2H, 11H)-dione]
GPCR agonist hits (minimum 3.0-fold RLU of basal) [1]: very few GPCR hits

O=C1Nc2ccc(-c3cc(C(F)(F)F)cc(C(F)(F)F)c3)cc2C(=O)N2CCN(C(=O)COc3ccc(OC(F)(F)F)cc3I)C[C@@H]12 [Example 187, (S)-8-(3,5-bis(trifluoromethyl)phenyl)-2-(2-(2-iodo-4-(trifluoromethoxy)phenoxy)acetyl)-1,3,4,12a-tetrahydrobenzo[e]pyrazino[1,2-a][1,4]diazepine-6,12 (2H, 11H)-dione]
Emax (WT RXFP2; [4]): 86.3 ± 3.38%
EC50 (WT RXFP2; read-out: EC50 (μM or nM)): 0.012 ± 0.008 µM
Emax [2, 4]: 96.47 ± 0.43%
EC50 ([2]; read-out: EC50 (μM or nM)): 0.016 ± 0.002 µM
cAMP response of chimera RXFP1-2 [3]: levels comparable to WT RXFP2
